Among the data in patent US10160772B2, “5,6-dihydro-4H-benzo[b]thieno-[2,3-d]azepine derivatives” (PULMOCIDE LIMITED, priority 2014, dated 2018) are IC50, inhibition and CC50 values, retold here.

Common to all, as to assay type: cell-based
The test system of one series is RSV B Washington strain. Description: RSV B-induced CPE in Hep2 cells. The following applies: human respiratory syncytial virus, Hep2 cells; for IC50: HEp-2, 144 h, RSV B Washington 0.1 MOI, 6 days, resazurin, read-out: RSV B CPE IC50; for inhibition at 1 µg/mL: HEp-2, at 1 μg/mL, read-out: RSV B CPE % Inhibition. A general note: Alamar Blue is a resazurin reagent that responds to reducing activity.

For the next series, the system named is RSV A2 strain. Description: RSV A2-induced CPE in Hep2 cells. Conditions: human respiratory syncytial virus, Hep2 cells; for IC50: HEp-2, 120 h, RSV A2 1 MOI, 5 days, resazurin, read-out: RSV A2 CPE IC50; for inhibition at 0.1 µg/mL / inhibition at 0.01 µg/mL: HEp-2, read-out: RSV A2 CPE % Inhibition; for inhibition at 0.1 µg/mL: at 0.1 μg/mL; for inhibition at 0.01 µg/mL: at 0.01 μg/mL (footnote 2).

Series [1] in a line: Cell viability: resazurin assay in Hep2 cells. Conditions: human, 5 days incubation.
Series [2] relates to RSV A2 F-protein expression. Description: RSV A2 F-protein expression in BEAS2B bronchial epithelial cells. The following applies: human respiratory syncytial virus, BEAS-2B, 72 h, read-out: RSV A2 F-protein IC50. How it is done: Assessment of RSV F Protein Expression in BEAS2B Bronchial Epithelial Cells
An early event which follows the infection of epithelial cells by RSV is the expression of RSV F-protein on the cells' surface. BEAS2B cells (SV40-immortalised human bronchial epithelial cell line) were grown in 96 well plates. Once more than 70% confluent, cells were infected with RSV A2 (#0709161v, NCPV, Public Health England, Wiltshire) at an MOI of 0.01 in clear RPMI-1640 medium (Life technologies, Paisley, UK) with 2% FBS (Life technologies, Paisley, UK), and incubated for 3 days (37° C./5% CO2).
Supernatant was aspirated and the cells were fixed with 4% formaldehyde (100 μL in PBS solution) for 20 min, washed 3 times with washing buffer (200 μL; PBS containing 0.05% Tween-20) and incubated with blocking solution (100 μL; 5% Marvel milk in PBS) for 1 hr. Cells were then washed with washing buffer (200 μL) and incubated for 1 hr at 37° C. with anti-RSV (2F7; mouse monoclonal, lot 160290, Cat. No. ab43812, Abcam plc, Cambridge, UK) F-fusion protein antibody (50 μL; prepared at a 1:1000 dilution in 5% milk/PBS-tween). After washing, cells were incubated with an HRP-conjugated anti-mouse IgG antibody (50 μL prepared at a 1:2000 dilution in 5% milk in PBS; lot 00095437, Cat. No. P0447, Dako UK Ltd, Cambridgeshire, UK) for 1 hr. Cells were washed twice with washing buffer and once with PBS. TMB substrate (100 μL; substrate reagent pack lot 320436, Cat. No. DY999, R&D Systems, Inc. Abingdon, UK) was then added and the reaction was stopped by the addition of aq sulfuric acid (50 μL; 2N). The resultant signal was determined colourimetrically (OD: 450 nm with a reference wavelength of 655 nm) in a microplate reader (Multiskan FC®, ThermoFisher Scientific). Cells were then washed and 1% crystal violet solution (50 μL; lot SLB4576, Cat. No. HT90132-1L, Sigma-Aldrich) was applied for 30 min. After washing with PBS (200 μL) 3 times, 1% SDS (100 μL) was added to each well, and plates were shaken lightly for 1 hr prior to reading the absorbance at 595 nm. The measured OD450-655 readings were corrected for cell number by dividing the OD450-655 by the OD595 readings. The percentage inhibition for each well was calculated and the IC50 value derived from the concentration-response curve generated for each test compound.

SMILES strings stand for the structures.

Regarding `O=C(Nc1ccc(C(=O)N2CCc3cc(-c4nc5ccccc5[nH]4)sc3-c3ccccc32)cc1)c1cccnc1N1CC2(CCOCC2)C1` [Example 7], in the series with RSV B Washington strain, the IC50 came out at 28.7 nM and the inhibition at 1 µg/mL worked out at 100%. Besides, in the series on RSV A2 strain, the IC50 is 0.12 nM and the inhibition at 0.1 µg/mL stood at 100%. Moreover, the CC50 at 5 days in series [1] was greater than 15000 nM. For the same molecule, in series [2], the IC50 was 0.94 nM.
For `N#Cc1cccc2nc(-c3cc4c(s3)-c3ccccc3N(C(=O)c3ccc(NC(=O)c5cccnc5N5CC6(CCOCC6)C5)cc3)CC4)[nH]c12` [Example 12, N-(4-(2-(7-cyano-1H-benzo[d]imidazol-2-yl)-5,6-dihydro-4H-benzo[b]thieno[2,3-d]azepine-6-carbonyl)phenyl)-2-(7-oxa-2-azaspiro[3.5]nonan-2-yl)nicotinamide], in the series with RSV B Washington strain, the IC50 is 111 nM and the inhibition at 1 µg/mL came to 100%. In the series on RSV A2 strain, the IC50 was 0.94 nM and the inhibition at 0.1 µg/mL was 100%. Besides, the CC50 at 5 days in series [1] was greater than 14500 nM. For the same molecule, the IC50 in series [2] was determined as 0.21 nM.
With `C#Cc1cnc(N2CC3(CCOCC3)C2)c(C(=O)Nc2ccc(C(=O)N3CCc4cc(-c5nc6ccccc6[nH]5)sc4-c4ccccc43)cc2)c1` [Example 5, N-(4-(2-(1H-Benzo[d]imidazol-2-yl)-5,6-dihydro-4H-benzo[b]thieno[2,3-d]azepine-6-carbonyl)phenyl)-5-ethynyl-2-(7-oxa-2-azaspiro[3,5]nonan-2-yl)nicotinamide], in the series on RSV B Washington strain, the IC50 stood at 36.1 nM and the inhibition at 1 µg/mL came to 92%. Also, in the series on RSV A2 strain, the IC50 was 6.9 nM and the inhibition at 0.01 µg/mL turned out to be 100%. Also, the CC50 at 5 days in series [1] was greater than 14500 nM. Also, the IC50 in series [2] was 0.11 nM.
For the molecule `Cc1cnc(N2CC3(CCOCC3)C2)c(C(=O)Nc2ccc(C(=O)N3CCc4cc(-c5nc6cccc(F)c6[nH]5)sc4-c4ccccc43)cc2)c1` [Example 14, N-(4-(2-(7-fluoro-1H-benzo[d]imidazol-2-yl)-5,6-dihydro-4H-benzo[b]thieno[2,3-d]azepine-6-carbonyl)phenyl)-5-methyl-2-(7-oxa-2-azaspiro[3.5]nonan-2-yl)nicotinamide], in the series with RSV B Washington strain, the IC50 amounted to 0.99 nM and the inhibition at 1 µg/mL worked out at 100%. Also, in the series with RSV A2 strain, the IC50 came out at 0.24 nM and the inhibition at 0.01 µg/mL was 93%. The CC50 at 5 days in series [1] is greater than 14300 nM. Further, the IC50 in series [2] is 0.31 nM.
With `Cc1ccc(C(=O)Nc2ccc(C(=O)N3CCc4cc(-c5nc6ccccc6[nH]5)sc4-c4ccccc43)cc2)c(N2CC3(CCOCC3)C2)n1` [Example 2, N-(4-(2-(1H-Benzo[d]imidazol-2-yl)-5,6-dihydro-4H-benzo[b]thieno[2,3-d]azepine-6-carbonyl)phenyl)-6-methyl-2-(7-oxa-2-azaspiro[3,5]nonan-2-yl)nicotinamide], in the series on RSV B Washington strain, the IC50 was 9.6 nM and the inhibition at 1 µg/mL was determined as 100%. In addition, in the series on RSV A2 strain, the IC50 was found to be 0.23 nM and the inhibition at 0.01 µg/mL turned out to be 90%. Moreover, the CC50 at 5 days in series [1] is greater than 14700 nM. Also, the IC50 in series [2] stood at 1.6 nM.

One may read the IC50 as the concentration that inhibits the measured activity by half. One may read the inhibition as the relative decrease from the control value, in per cent. One may read the CC50 as the concentration that lowers cell viability or growth by half.
